Measured values as given in patent US4308210A, “Nanaomycin B and therapeutic compositions containing same” (The Kitasato Institute, priority 1976, dated 1981).
Values after ≈ are worked out from the molar mass of the structure shown.

How the values were obtained:
[1] = system: Mycoplasma gallisepticum; test: Therapeutic effect on chronic respiratory disease of chickens; type: in vivo
[2] = Solubility; type: physicochemical
[3] = Activity of nanaomycin B itself; settings: in words
[4] = system: Trichophyton asteroides; test: Antimicrobial spectrum, MIC, potato agar; type: cell-based; settings: 96 h, potato agar (pH 6.4, 4 days, 27° C.)
[5] = system: Trichophyton violaceum; test: Antimicrobial spectrum, MIC, potato agar; type: cell-based; settings: 96 h, potato agar (pH 6.4, 4 days, 27° C.)
[6] = system: fungi (Test Organisms of Table 4); test: Antifungal activity, comparison in words (Table 4); type: cell-based
[7] = system: Trichophyton schoenleini; test: Antimicrobial spectrum, MIC, potato agar; type: cell-based; settings: 96 h, potato agar (pH 6.4, 4 days, 27° C.)
[8] = Conversion of nanaomycin B into nanaomycin A in culture medium or living bodies

CC1OC(CC(=O)O)CC2C(=O)c3cccc(O)c3C(=O)C12O (centres unmarked) [Nanaomycin B]
therapeutic effect on chronic respiratory disease [1]: therapeutic effect | Solubility in methanol, ethanol, ethylacetate, chloroform, acetone and ether [2]: Easily soluble | Solubility in n-hexane, petroleum ether and water [2]: Insoluble | activity of nanaomycin B itself [3]: no or little activity | MIC [4]: 12.5 µg/mL (≈ 39 µM) | MIC [5]: 3.1 µg/mL (≈ 9.68 µM) | antifungal activity compared with deoxyfrenolicin [6]: slightly inferior | antifungal activity compared with ethylkalafunginate (ethylkalamycinate) [6]: superior | antifungal activity when the pH of the medium is higher than 6.4 ([6]; pH of medium higher than 6.4): stronger antifungal activity | MIC [7]: 3.1 µg/mL (≈ 9.68 µM) | conversion into nanaomycin A in a culture medium or in living bodies [8]: converted into nanaomycin A
